Like-named read-outs stand apart in the source and are kept apart here.
Legend:
tumor cells = conditions: cited from earlier work
recombinant Bgl-gyp17 [1] = assay: Enzymatic hydrolysis of PPD-type ginsenosides (TLC, HPLC, NMR); assay type: biochemical, Terrabacter ginsenosidimutans Gsoil 3082; conditions: 0.2 U enzyme, 50 mM sodium phosphate pH 7.0, 37° C., hydrolysis of glucoses at C-3
Experimental: In order to analyze the specificity and selectivity of the recombinant enzyme for the hydrolysis of glucose at the C-3 and C-20 positions of PPD-type ginsenoside, ginsenoside Rb1, Rb2, Rc, Rd, and Rg3 were used as substrates. Each reaction mixture containing 0.2 U enzyme, 50 mM sodium phosphate buffer 0.1% (w/v) (pH 7.0), and the substrate was incubated at 37° C. Each sample was withdrawn at regular intervals, and an equal volume of water-saturated butanol was added to stop the reaction. The n-butanol fraction was evaporated to dryness, and any residual material was dissolved in CH3OH and then examined by TLC HPLC or NMR analysis.

[2] = cited from earlier work
[3] = test system: B16 melanoma, MK-1 (stomach cancer cell), ovarian cancer cell (HRA); conditions: MK-1, HRA; cited from earlier work
[4] = test system: F9 teratocarcinoma stem cells; conditions: cited from earlier work
recombinant Bgl-gyp17 [5] = assay: Enzymatic hydrolysis of PPD-type ginsenosides (TLC, HPLC, NMR); assay type: biochemical, Terrabacter ginsenosidimutans Gsoil 3082; conditions: printed: when ginsenoside Rb1 was 0.1 mg/ml
[6] = orally administered into the human body

In the case of CC(C)=CCC[C@](C)(O[C@@H]1O[C@H](CO)[C@@H](O)[C@H](O)[C@H]1O)[C@H]1CC[C@]2(C)[C@@H]1[C@H](O)C[C@@H]1[C@@]3(C)CC[C@H](O[C@@H]4O[C@H](CO)[C@@H](O)[C@H](O)[C@H]4O)C(C)(C)[C@@H]3CC[C@]12C [F2, ginsenoside F2], the “effect on proliferation of tumor cells” value (tumor cells) is listed as “suppressing the proliferation of tumor cells”, the “effect on multi-drug resistance” value (tumor cells; tumor cells and bacteria) is listed as “reversing multi-drug resistance” and the “conversion of the ginsenoside by the enzyme (product)” value (“conversion … (product)” for short) (recombinant Bgl-gyp17 [1]) is listed as “further converted into C—K (compound K) and C—K”.

In the case of CC(C)=CCC[C@](C)(O[C@@H]1O[C@H](CO[C@@H]2O[C@@H](CO)[C@H](O)[C@H]2O)[C@@H](O)[C@H](O)[C@H]1O)[C@H]1CC[C@]2(C)[C@@H]1[C@H](O)C[C@@H]1[C@@]3(C)CC[C@H](O[C@@H]4O[C@H](CO)[C@@H](O)[C@H](O)[C@H]4O[C@@H]4O[C@H](CO)[C@@H](O)[C@H](O)[C@H]4O)C(C)(C)[C@@H]3CC[C@]12C [Rc, ginsenoside Rc], the “conversion … (product)” value (recombinant Bgl-gyp17 [1]) is given as “C-Mc (compound Mc) and C-Mc” and the in vivo absorption [2, 6] is given as “very low in vivo absorption”.

For CC(C)=CCC[C@](C)(O[C@@H]1O[C@H](CO)[C@@H](O)[C@H](O)[C@H]1O)[C@H]1CC[C@]2(C)[C@@H]1[C@H](O)C[C@@H]1[C@@]3(C)CC[C@H](O)C(C)(C)[C@@H]3[C@@H](O[C@@H]3O[C@H](CO)[C@@H](O)[C@H](O)[C@H]3O[C@@H]3O[C@@H](C)[C@H](O)[C@@H](O)[C@H]3O)C[C@]12C [Re], the in vivo absorption [2, 6] is listed as “very low in vivo absorption”.

For CC(C)=CCC[C@](C)(O[C@@H]1O[C@H](CO)[C@@H](O)[C@H](O)[C@H]1O)[C@H]1CC[C@]2(C)[C@@H]1[C@H](O)C[C@@H]1[C@@]3(C)CC[C@H](O)C(C)(C)[C@@H]3[C@@H](O[C@@H]3O[C@H](CO)[C@@H](O)[C@H](O)[C@H]3O)C[C@]12C [Rg1], the in vivo absorption [2, 6] is listed as “very low in vivo absorption”.

For CC(C)=CCC[C@](C)(O)[C@H]1CC[C@]2(C)[C@@H]1[C@H](O)C[C@@H]1[C@@]3(C)CC[C@H](O)C(C)(C)[C@@H]3[C@@H](O[C@@H]3O[C@H](CO)[C@@H](O)[C@H](O)[C@H]3O)C[C@]12C [Rh1], the “inhibitory effects on proliferation” value [3] is given as “strong inhibitory effects” and the induction of differentiation [4] is given as “strongly induce the differentiation”.

For CC(C)=CCC[C@](C)(O)[C@H]1CC[C@]2(C)[C@@H]1[C@H](O)C[C@@H]1[C@@]3(C)CC[C@H](O[C@@H]4O[C@H](CO)[C@@H](O)[C@H](O)[C@H]4O)C(C)(C)[C@@H]3CC[C@]12C [Rh2, ginsenoside Rh2], the “conversion … (product)” value (recombinant Bgl-gyp17 [1]) is given as “converted Rh2 into PPD and PPD”, the “inhibitory effects on proliferation” value [3] is given as “strong inhibitory effects” and the induction of differentiation [4] is given as “strongly induce the differentiation”.

In the case of CC(C)=CCC[C@](C)(O[C@@H]1O[C@H](CO[C@@H]2OC[C@H](O)[C@H](O)[C@H]2O)[C@@H](O)[C@H](O)[C@H]1O)[C@H]1CC[C@]2(C)[C@@H]1[C@H](O)C[C@@H]1[C@@]3(C)CC[C@H](O[C@@H]4O[C@H](CO)[C@@H](O)[C@H](O)[C@H]4O[C@@H]4O[C@H](CO)[C@@H](O)[C@H](O)[C@H]4O)C(C)(C)[C@@H]3CC[C@]12C [ginsenoside Rb2], the “conversion … (product)” value (recombinant Bgl-gyp17 [1]) is listed as “C—Y (compound Y)”, the “conversion … (product)” value (recombinant Bgl-gyp17 [1]; listed as Rb2) is listed as “C—Y” and the in vivo absorption ([2]; in vivo, po) is listed as “very low in vivo absorption”.

For CC(C)=CCC[C@](C)(O[C@@H]1O[C@H](CO[C@@H]2O[C@H](CO)[C@@H](O)[C@H](O)[C@H]2O)[C@@H](O)[C@H](O)[C@H]1O)[C@H]1CC[C@]2(C)[C@@H]1[C@H](O)C[C@@H]1[C@@]3(C)CC[C@H](O[C@@H]4O[C@H](CO)[C@@H](O)[C@H](O)[C@H]4O)C(C)(C)[C@@H]3CC[C@]12C [gyp XVII, gypenoside XVII], the “conversion of the ginsenoside” value (recombinant Bgl-gyp17 [5]) was “subsequently converted into gyp LXXV” and the “conversion … (product)” value (recombinant Bgl-gyp17 [1]) was “C—K”.

Source: patent US8735129B2, “Ginsenoside glycosidase derived from the genus Terrabacter, and use thereof” (Korea Research Institute of Bioscience and Biotechnology, priority 2009, dated 2014)
